Experimental data from publication PMC8100298, “Histone deacetylase inhibitor resminostat in combination with sorafenib counteracts platelet-mediated pro-tumoral effects in hepatocellular carcinoma” (Scientific Reports, 2021).
Read-outs that look alike come from different tables or passages of the source.

Assays:
Assay type in all cases: cell-based
PLC/PRF/5 HCC cells = experiment: Intracellular flow cytometry (AcLys, H3K27Ac); details: 1 µM or 3 µM, 24 hours (Fig. S1B)
Experimental: Supplemental Figures and Figure legends
Figure S1. Inhibition of cancer cell growth by the broad-spectrum HDACI resminostat
A. Inhibition of HDAC1 to 11 by resminostat determined by in vitro HDAC activity assays.
IC50 data from three independent experiments are shown as mean ± SD.
B. Intracellular flow cytometry using antibodies targeting acetyl lysine (AcLys) and the H3K27
acetylation mark (H3K27Ac). IgG isotype controls were used for each antibody. PLC/PRF/5
HCC cells were treated with vehicle control ( 0.1 % DMSO), 1 µM or 3 µM resminostat for 24
hours. For AcLys, the geometric mean fluore scence intensities (gMFI) are shown. For
H3K27Ac, the ratios of the gMFIs for H3K27Ac relative to Histone H3 are shown. D ata of
three technical replicates are presented as mean ± SD.
(1 picture or pasted object on this page, not shown here)
(100×, 78440; Thermo Scientific, Massachusetts, US). Following incubation for 1 h at 4°C,
The protein concentration of the
Fisher Scientific, Massachusetts, US ). Equal amounts of protein lysates and a pre-stained
US) and transferred to PVDF membranes. The membranes were probed using the relevant […]
secondary fluorescence labelled antibodies for 45 min in the dark at RT, washed twice in […]
cells were measured using the Miltenyi MACSQuant Analyser 10 (Miltenyi) and analysed with […]
counted in a Neubauer chamber before the required number of platelets was activated by […]

IGROV1 = experiment: Efficacy screening assay; details: IGROV1, ovary
Experimental: (§1) The experiment was performed by Oncolead GmbH & Co. KG (Karlsfeld , Germany), based on a standardized screening procedure . Cell lines were purchased directly from the ATCC, NCI and DSMZ cell line c ollections. Cells used for the study had undergone less than 20 passages. To ensure the absence of potential contamination and wrong assignment, all cell lines were tested using a whole genome assay (Agilent, USA). All cell lines were grown as recommended by the suppliers and with addition of 100 U/mL penicillin G and 100 µg/mL; streptomycin. Cell growth and treatments were performed in Nunclon D 96 -well plates (NUNC, Germany). The optimal seeding density for each cell line was determined to ensure exponential growth for the duration of the experiment. All cells growing without anti-cancer agents were sub-conﬂuent by the end of the treatment, as determined by visual inspection.
(§2) After an initial 24 h pre-growth period, the compounds were added. The vehicle concentration […]
(§3) was 0.1% DMSO. After incubation at 37°C for 72 h, the culture medium was aspirated, and the cells were precipitated by the addition of 10% trichloroacetic acid (Sigma-Aldrich, Missouri, US). After overnight incubation at 4°C, the plates were washed three times with deionized water. The precipitates were then stained with SRB (0.4% wt/v sulforhodamine B solution in 1% acetic acid, Sigma-Aldrich, Missouri, US). Afterwards, the plates were washed six times with 1% acetic acid to remove unbound stain. After drying the plates at room temperature, the bound SRB was solubilized with 10 mM Tris base and the optical density was measured at 520 nm using a Victor2 plate reader (Perkin Elmer, Germany). Blank OD values were subtracted from mean OD values for each concentration. The nonlinear curve ﬁtting and EC50 calculations were per formed using XLﬁt and algorithm “205” (ID Business […]
(§4) Multiplicity adjusted p-values with 95% confidence interval was applied. For the invasion assays in Figure 4, one-way ANOVA with multiple comparison testing (Tukey) was performed. Multiplicity adjusted p-values with 95% confidence interval was applied. The adjusted p-values comparing vehicle control without vs. with platelets and compound

J82 = experiment: Efficacy screening assay; details: J82, bladder
Experimental: as §1, §2, §3, §4

LOVO = experiment: Efficacy screening assay; details: 72 h, colon
Experimental: as §1, §2, §3, §4

MDAMB231 = experiment: Efficacy screening assay; details: MDAMB231, breast
Experimental: as §1, §2, §3, §4

MG63 = experiment: Efficacy screening assay; details: MG63, bone
Experimental: as §1, §2, §3, §4

MHHES1 = experiment: Efficacy screening assay; details: MHHES1, bone
Experimental: as §1, §2, §3, §4

CN(C)Cc1ccc(S(=O)(=O)n2ccc(/C=C/C(=O)NO)c2)cc1 [resminostat, Resminostat]
acetylation of histone mark H3K27 (PLC/PRF/5 HCC cells): hyperacetylation | global acetylation level (AcLys) (PLC/PRF/5 HCC cells): increase of the global acetylation level in HCC cells in a dose-dependent manner | EC50 (IGROV1; Homo sapiens, IGROV-1, 72 h, log of EC50, negative, read-out: log(EC50) (converted)): 1910 nM | EC50 (IGROV1; Homo sapiens, IGROV-1, 72 h, read-out: EC50): 1880 nM | EC50 (IGROV1; 72 h, read-out: EC50): 1880 nM | EC50 (J82; Homo sapiens, J82, 72 h, log of EC50, negative, read-out: log(EC50) (converted)): 5620 nM | EC50 (J82; Homo sapiens, J82, 72 h, read-out: EC50): 5680 nM | EC50 (J82; 72 h, read-out: EC50): 5680 nM | EC50 (LOVO; Homo sapiens, LoVo, log of EC50, negative, read-out: log(EC50) (converted)): 1050 nM | EC50 (LOVO; Homo sapiens, LoVo, read-out: EC50): 1050 nM | EC50 (LOVO; read-out: EC50): 1050 nM | EC50 (MDAMB231; Homo sapiens, MDA-MB-231, 72 h, log of EC50, negative, read-out: log(EC50) (converted)): 2340 nM | EC50 (MDAMB231; Homo sapiens, MDA-MB-231, 72 h, read-out: EC50): 2360 nM | EC50 (MDAMB231; 72 h, read-out: EC50): 2360 nM | EC50 (MG63; Homo sapiens, MG-63, 72 h, log of EC50, negative, read-out: log(EC50) (converted)): 1740 nM | EC50 (MG63; Homo sapiens, MG-63, 72 h, read-out: EC50): 1760 nM | EC50 (MG63; 72 h, read-out: EC50): 1750 nM | EC50 (MHHES1; Homo sapiens, MHH-ES-1, 72 h, log of EC50, negative, read-out: log(EC50) (converted)): 1380 nM | EC50 (MHHES1; Homo sapiens, MHH-ES-1, 72 h, read-out: EC50): 1380 nM | EC50 (MHHES1; 72 h, read-out: EC50): 1380 nM
